Laboratory results taken from ChEMBL document CHEMBL4376882, “Photodynamic Therapy for ras-Driven Cancers: Targeting G-Quadruplex RNA Structures with Bifunctional Alkyl-Modified Porphyrins” (J Med Chem, 2020).
pEC50, pKd: −log10 of the molar value. Activity calls are given as the source filed them. No cut-off for these calls is given here.

What was measured:
Quadruplex DNA [1] = test: Binding affinity to human KRAS utr-1 RNA g-quadruplex by fluorescence spectroscopy; format: nucleic-acid assay
Quadruplex DNA [2] = test: Binding affinity to human KRAS utr-z RNA g-quadruplex assessed as induction of hypochromicity at 1.6 uM by UV-vis spectrophotometry relative to control; format: nucleic-acid assay
Quadruplex DNA [3] = test: Binding affinity to human KRAS utr-z RNA g-quadruplex assessed as emission spectra at absorbance 650 to 715 nm 1 uM by fluorescence titration method; format: nucleic-acid assay
[4] = Binding affinity to NRAS RNA g-quadruplex (unknown origin) at 40 degree C by SPR analysis; format: nucleic-acid assay
Quadruplex DNA [5] = test: Binding affinity to human KRAS utr-z RNA g-quadruplex assessed as compound-RNA complex stoichiometry ratio of 6:1 by Job's plot analysis; format: nucleic-acid assay
[6] = Drug uptake in human PANC1 cells at 5 uM after 16 hrs by FACS analysis; format: ADME, cell-based; settings: panc-1, 16 h
[7] = Drug localization in cytoplasm of human PANC1 cells at 5 uM after 6 hrs by Hoechst staining based confocal microscopy; format: ADME, subcellular; settings: panc-1, 6 h
[8] = Drug uptake in human PANC1 cells at 5 uM and 4 degree C after 16 hrs by FACS analysis relative to 37 degree C; format: ADME, cell-based; settings: panc-1, 16 h
PANC-1 [9] = test: Induction of ROS generation in human PANC1 cells cleavage of CM-H2DCFDA to CM-H2DCF by intracellular esterase by measuring green fluorescence emission incubated for 16 hrs in presence of NAC followed by 7.2J/cm2 photoirradiation and subsequent compound washout measured after 40 mins by CM-H2DCFDA staining-based FACSCalibur flow cytometry; format: functional, cell-based
Quadruplex DNA [10] = test: Induction of ROS-mediated […] labeled Ras RNA g-quadruplex (unknown origin) degradation assessed as increase in residual RNA g-quadruplex at 0.6 uM incubated for 30 mins in presence of NAC followed by photoirradiation for 15 to 30 mins by PAGE analysis relative to control; format: nucleic-acid assay
[11] = molecular target: GTPase KRas (Homo sapiens) (UniProt P01116); test: Inhibition of KRAS in human PANC1 cells assessed as downregulation of KRAS expression at 15 nM followed by 7.2 J/cm2 irradiation after 4 hrs by Western blot analysis (reference value: 5 %); format: cell-based
GTPase KRas (Homo sapiens), sequence (P01116 whole entry, looked up): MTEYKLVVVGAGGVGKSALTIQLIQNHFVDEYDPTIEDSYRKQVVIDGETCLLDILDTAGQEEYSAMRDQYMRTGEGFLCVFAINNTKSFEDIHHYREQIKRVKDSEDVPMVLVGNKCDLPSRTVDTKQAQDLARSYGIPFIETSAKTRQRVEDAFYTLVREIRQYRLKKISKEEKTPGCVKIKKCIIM

[12] = molecular target: GTPase NRas (Homo sapiens) (UniProt P01111); test: Inhibition of NRAS in human PANC1 cells assessed as downregulation of NRAS expression at 15 nM followed by 7.2 J/cm2 irradiation after 4 hrs by Western blot analysis (reference value: 25 %); format: cell-based
GTPase NRas (Homo sapiens), sequence (P01111 whole entry): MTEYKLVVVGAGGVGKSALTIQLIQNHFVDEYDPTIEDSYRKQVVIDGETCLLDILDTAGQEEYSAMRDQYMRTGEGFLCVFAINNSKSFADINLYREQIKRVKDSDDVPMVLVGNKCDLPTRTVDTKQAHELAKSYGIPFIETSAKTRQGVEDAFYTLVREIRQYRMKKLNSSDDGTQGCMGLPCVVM

PANC-1 [13] = test: Cytotoxicity against human PANC1 cells assessed as reduction in metabolic activity after 48 hrs in dark followed by photoirradiation in presence of NADH by resazurin assay; format: functional, cell-based; settings: PANC-1, light or radiation study
HEK293 = test: Cytotoxicity against human HEK293 cells assessed as reduction in metabolic activity after 24 to 72 hrs in dark followed by photoirradiation in presence of NADH by resazurin assay; format: ADME, cell-based
PANC-1 [14] = test: Photodynamic antitumor activity against human PANC1 cells xenografted in SCID mouse assessed as reduction in tumor growth at 3 mg/kg administered intratumorally after 2 hrs photoirradiated by diode laser at 193 J/cm2 by micrometer caliper method; format: functional, organism-based
PANC-1 [15] = test: Antitumor activity against human PANC1 cells xenografted in SCID mouse assessed as reduction in tumor growth at 3 mg/kg administered intratumorally measured after 14 days by micrometer caliper method; format: functional, organism-based
PANC-1 [16] = test: Induction of apoptosis in human PANC1 cells assessed as early apoptotic cells at 5 nM and photoirradiated at 7.2 J/cm2 measured after 6 to 24 hrs by annexin-V-propidium iodide staining based FACScalibur flow cytometry analysis (reference value: 4.6 %); format: functional
PANC-1 [17] = test: Induction of apoptosis in human PANC1 cells assessed as late apoptotic cells at 5 nM and photoirradiated at 7.2 J/cm2 measured after 6 to 24 hrs by annexin-V-propidium iodide staining based FACScalibur flow cytometry analysis (reference value: 2.7 %); format: functional
PANC-1 [18] = test: Induction of apoptosis in human PANC1 cells assessed as early apoptotic cells at 10 nM and photoirradiated at 7.2 J/cm2 measured after 6 to 24 hrs by annexin-V-propidium iodide staining based FACScalibur flow cytometry analysis (reference value: 4.6 %); format: functional
PANC-1 [19] = test: Induction of apoptosis in human PANC1 cells assessed as necrotic cells at 10 nM and photoirradiated at 7.2 J/cm2 measured after 6 to 24 hrs by annexin-V-propidium iodide staining based FACScalibur flow cytometry analysis (reference value: 0.7 %); format: functional
PANC-1 [20] = test: Induction of apoptosis in human PANC1 cells assessed as viable cells at 15 nM and photoirradiated at 7.2 J/cm2 measured after 6 to 24 hrs by annexin-V-propidium iodide staining based FACScalibur flow cytometry analysis (reference value: 91.9 %); format: functional; settings: PANC-1, light or radiation study, read-out: Activity
PANC-1 [21] = test: Induction of apoptosis in human PANC1 cells assessed as late apoptotic cells at 15 nM and photoirradiated at 7.2 J/cm2 measured after 6 to 24 hrs by annexin-V-propidium iodide staining based FACScalibur flow cytometry analysis (reference value: 2.7 %); format: functional
PANC-1 [22] = test: Induction of apoptosis in human PANC1 cells assessed as viable cells at 5 nM and photoirradiated at 7.2 J/cm2 measured after 6 to 24 hrs in presence of NAC by annexin-V-propidium iodide staining based FACScalibur flow cytometry analysis (reference value: 94.5 %); format: functional; settings: PANC-1, light or radiation study, read-out: Activity
PANC-1 [23] = test: Induction of apoptosis in human PANC1 cells assessed as early apoptotic cells at 5 nM and photoirradiated at 7.2 J/cm2 measured after 6 to 24 hrs in presence of NAC by annexin-V-propidium iodide staining based FACScalibur flow cytometry analysis (reference value: 3.1 %); format: functional
PANC-1 [24] = test: Induction of apoptosis in human PANC1 cells assessed as late apoptotic cells at 5 nM and photoirradiated at 7.2 J/cm2 measured after 6 to 24 hrs in presence of NAC by annexin-V-propidium iodide staining based FACScalibur flow cytometry analysis (reference value: 1.3 %); format: functional
PANC-1 [25] = test: Induction of apoptosis in human PANC1 cells assessed as late apoptotic cells at 10 nM and photoirradiated at 7.2 J/cm2 measured after 6 to 24 hrs in presence of NAC by annexin-V-propidium iodide staining based FACScalibur flow cytometry analysis (reference value: 1.3 %); format: functional
PANC-1 [26] = test: Induction of apoptosis in human PANC1 cells assessed as early apoptotic cells at 15 nM and photoirradiated at 7.2 J/cm2 measured after 6 to 24 hrs in presence of NAC by annexin-V-propidium iodide staining based FACScalibur flow cytometry analysis (reference value: 3.1 %); format: functional
PANC-1 [27] = test: Induction of apoptosis in human PANC1 cells assessed as late apoptotic cells at 15 nM and photoirradiated at 7.2 J/cm2 measured after 6 to 24 hrs in presence of NAC by annexin-V-propidium iodide staining based FACScalibur flow cytometry analysis (reference value: 1.3 %); format: functional
[28] = Induction of ROS-mediated […] labeled Ras RNA g-quadruplex (unknown origin) degradation at 0.6 uM incubated for 30 mins followed by photoirradiation for 15 to 30 mins by PAGE analysis

In the case of CCCCCCCCCCCCCC[n+]1ccc(-c2c3nc(c(-c4cc[n+](C)cc4)c4ccc([nH]4)c(-c4cc[n+](C)cc4)c4nc(c(-c5cc[n+](C)cc5)c5ccc2[nH]5)C=C4)C=C3)cc1.[I-].[I-].[I-].[I-], the pKd (Quadruplex DNA [1]) was 6.63, the Activity (Quadruplex DNA [2]) was 50% and the Activity (Quadruplex DNA [3]) was “Active”. For the same compound, the pKd [4] was 7.01 to 7.25, the Activity (Quadruplex DNA [5]) was “Active” and the Drug uptake [6] was “Active”. For the same compound, the Drug uptake [7] was “Active”, the Drug uptake [8] was 24% and the Activity (PANC-1 [9]) was “inactive”. It also gave an Activity (Quadruplex DNA [10]) of 50%, an inhibition [11] of 20% and an inhibition [12] of 50%. For the same compound, the pEC50 (PANC-1 [13]) was 7.86, the Activity (HEK293) was “Non-Toxic” and the Activity (PANC-1 [14]) was “Active”. For the same compound, the Activity (PANC-1 [15]) was “inactive”, the Activity (PANC-1 [16]) was 5.1% and the Activity (PANC-1 [17]) was 6.1%. For the same compound, the Activity (PANC-1 [18]) was 4.8%, the Activity (PANC-1 [19]) was 2.2% and the viability at 0.015 µM (PANC-1 [20]) was 70.6%. The Activity (PANC-1 [21]) was 20.8%, the viability at 0.005 µM (PANC-1 [22]) was 95.2% and the Activity (PANC-1 [23]) was 2.4%. For the same compound, the Activity (PANC-1 [24]) was 1.1%, the Activity (PANC-1 [25]) was 3.1% and the Activity (PANC-1 [26]) was 3.9%. For the same compound, the Activity (PANC-1 [27]) was 5% and the Activity [28] was “Active”.
